Assay results from ChEMBL document CHEMBL6121054, “Discovery of Metabolic Reprogramming 2-Quinolones as Effective Antimicrobials for MRSA-Infected Wound Therapy” (J Med Chem, 2025).
≈ marks a conversion by molar mass, not a printed value.

Assays:
Format in all cases: functional
Staphylococcus aureus [1] = experiment: Antibacterial activity against Staphylococcus aureus USA300 incubated for 16 to 24 hrs by broth microdilution method; conditions: time 16-24 hrs
Staphylococcus aureus [2] = experiment: Antibacterial activity against Staphylococcus aureus USA400 incubated for 16 to 24 hrs by broth microdilution method; conditions: time 16-24 hrs
Staphylococcus aureus [3] = experiment: Antibacterial activity against Staphylococcus aureus DU1090 incubated for 16 to 24 hrs by broth microdilution method; conditions: time 16-24 hrs
Staphylococcus aureus [4] = experiment: Antibacterial activity against Staphylococcus aureus NCTC 8325-4 incubated for 16 to 24 hrs by broth microdilution method; conditions: time 16-24 hrs
Staphylococcus aureus [5] = experiment: Antibacterial activity against Staphylococcus aureus ATCC 25923 incubated for 16 to 24 hrs by broth microdilution method; conditions: time 16-24 hrs
Staphylococcus aureus [6] = experiment: Antibacterial activity against Staphylococcus aureus ATCC 25904 incubated for 16 to 24 hrs by broth microdilution method; conditions: time 16-24 hrs
Staphylococcus aureus [7] = experiment: Antibacterial activity against Staphylococcus aureus ATCC 29213 incubated for 16 to 24 hrs by broth microdilution method; conditions: time 16-24 hrs
Listeria monocytogenes [8] = experiment: Antibacterial activity against Listeria monocytogenes EGD incubated for 16 to 24 hrs by broth microdilution method; conditions: time 16-24 hrs
Listeria monocytogenes [9] = experiment: Antibacterial activity against Listeria monocytogenes ATCC 19115 incubated for 16 to 24 hrs by broth microdilution method; conditions: time 16-24 hrs
Staphylococcus aureus [10] = experiment: Antibacterial activity against methicillin-resistant Staphylococcus aureus MRSA 1 incubated for 16 to 24 hrs by broth microdilution method
Staphylococcus aureus [11] = experiment: Antibacterial activity against methicillin-resistant Staphylococcus aureus MRSA 2 incubated for 16 to 24 hrs by broth microdilution method; conditions: time 16-24 hrs
Streptococcus suis = experiment: Antibacterial activity against Streptococcus suis ZY05719 incubated for 16 to 24 hrs by broth microdilution method; conditions: time 16-24 hrs
Staphylococcus aureus [12] = experiment: Induction of resistance development in Staphylococcus aureus USA300 assessed as fold increase in MIC incubated for 24 hrs measured after 14 passages by broth microdilution method
[13] = Staphylococcus aureus, MRSA 1, time 16-24 hrs, read-out: MIC

Row | MIC (Staphylococcus aureus [1]) [µg/mL] | MIC (Staphylococcus aureus [2]) [µg/mL] | MIC (Staphylococcus aureus [3]) [µg/mL] | MIC (Staphylococcus aureus [4]) [µg/mL] | MIC (Staphylococcus aureus [5]) [µg/mL] | MIC (Staphylococcus aureus [6]) [µg/mL] | MIC (Staphylococcus aureus [7]) [µg/mL] | MIC (Listeria monocytogenes [8]) [µg/mL] | MIC (Listeria monocytogenes [9]) [µg/mL] | Compound | MIC (Staphylococcus aureus [10]; [13]) [µg/mL] | MIC (Staphylococcus aureus [10]; time 16-24 hrs) [µg/mL] | MIC (Staphylococcus aureus [11]) [µg/mL] | MIC (Streptococcus suis) [µg/mL] | fold change (FC) (Staphylococcus aureus [12])
1 | 0.46 (≈ 1.12 µM) | 1.29 (≈ 3.14 µM) | 0.5 (≈ 1.22 µM) | 1.25 (≈ 3.04 µM) | 0.46 (≈ 1.12 µM) | 0.48 (≈ 1.17 µM) | 0.67 (≈ 1.63 µM) | 0.49 (≈ 1.19 µM) | 0.5 (≈ 1.22 µM) | CCn1c(=O)c(C(=O)Nc2nnc(-c3ccc(F)cn3)s2)c(O)c2ccccc21 | – | – | – | – | –
2 | 0.17 (≈ 0.417 µM) | 0.08 (≈ 0.196 µM) | 0.02 (≈ 0.0491 µM) | 0.05 (≈ 0.123 µM) | 0.04 (≈ 0.0982 µM) | 0.04 (≈ 0.0982 µM) | 0.2 (≈ 0.491 µM) | 0.02 (≈ 0.0491 µM) | 0.02 (≈ 0.0491 µM) | CCn1c(=O)c(C(=O)Nc2nnc(-c3cccc(C)n3)s2)c(O)c2ccccc21 | – | – | – | – | –
3 | 4.67 (≈ 10.1 µM) | 6.67 (≈ 14.5 µM) | 0.96 (≈ 2.08 µM) | > 8 | 5.33 (≈ 11.6 µM) | 3.42 (≈ 7.41 µM) | > 8 | 0.21 (≈ 0.455 µM) | 0.29 (≈ 0.628 µM) | CCn1c(=O)c(C(=O)Nc2nnc(-c3ccc(C(F)(F)F)cn3)s2)c(O)c2ccccc21 | – | – | – | – | –
4 | > 8 | > 8 | > 8 | > 8 | > 8 | > 8 | > 8 | > 8 | > 8 | CCn1c(=O)c(C(=O)Nc2nnc(-c3ncccc3C)s2)c(O)c2ccccc21 | – | – | – | – | –
5 | 0.11 (≈ 0.267 µM) | 0.17 (≈ 0.413 µM) | 0.1 (≈ 0.243 µM) | 0.1 (≈ 0.243 µM) | 0.15 (≈ 0.365 µM) | 0.08 (≈ 0.194 µM) | 0.14 (≈ 0.34 µM) | 0.17 (≈ 0.413 µM) | 0.2 (≈ 0.486 µM) | CCn1c(=O)c(C(=O)Nc2nnc(-c3ncccc3F)s2)c(O)c2ccccc21 | – | – | – | – | –
6 | 0.06 (≈ 0.127 µM) | 0.07 (≈ 0.148 µM) | 0.05 (≈ 0.106 µM) | 0.27 (≈ 0.572 µM) | 0.2 (≈ 0.423 µM) | 0.19 (≈ 0.402 µM) | 1.13 (≈ 2.39 µM) | 0.06 (≈ 0.127 µM) | 0.05 (≈ 0.106 µM) | CCn1c(=O)c(C(=O)Nc2nnc(-c3ccc(Br)cn3)s2)c(O)c2ccccc21 | – | – | – | – | –
7 | 0.14 (≈ 0.344 µM) | 0.14 (≈ 0.344 µM) | 0.12 (≈ 0.295 µM) | 0.1 (≈ 0.245 µM) | 0.15 (≈ 0.368 µM) | 0.19 (≈ 0.466 µM) | 0.18 (≈ 0.442 µM) | 0.16 (≈ 0.393 µM) | 0.49 (≈ 1.2 µM) | CCn1c(=O)c(C(=O)Nc2nnc(-c3cc(C)ccn3)s2)c(O)c2ccccc21 | – | – | – | – | –
8 | 0.63 (≈ 0.827 µM) | 0.63 (≈ 0.827 µM) | 0.63 (≈ 0.827 µM) | 0.63 (≈ 0.827 µM) | 0.63 (≈ 0.827 µM) | 0.63 (≈ 0.827 µM) | 0.63 (≈ 0.827 µM) | 0.63 (≈ 0.827 µM) | 0.63 (≈ 0.827 µM) | CC1(C)S[C@H]([C@H](NC(=O)Cc2ccccc2)C(=O)NCc2ccccc2)N[C@H]1C(=O)N[C@H](Cc1ccccc1)[C@H](O)CC(=O)NCc1nc2ccccc2[nH]1 | – | – | – | – | –

Row | Compound | MIC (Staphylococcus aureus [1]) [µg/mL] | MIC (Staphylococcus aureus [2]) [µg/mL] | MIC (Staphylococcus aureus [3]) [µg/mL] | MIC (Staphylococcus aureus [4]) [µg/mL] | MIC (Staphylococcus aureus [5]) [µg/mL] | MIC (Staphylococcus aureus [6]) [µg/mL] | MIC (Staphylococcus aureus [7]) [µg/mL] | MIC (Listeria monocytogenes [8]) [µg/mL] | MIC (Listeria monocytogenes [9]) [µg/mL] | MIC (Staphylococcus aureus [10]; [13]) [µg/mL] | MIC (Staphylococcus aureus [10]; time 16-24 hrs) [µg/mL] | MIC (Staphylococcus aureus [11]) [µg/mL] | MIC (Streptococcus suis) [µg/mL] | fold change (FC) (Staphylococcus aureus [12])
9 | CN[C@H](CC(C)C)C(=O)N[C@H]1C(=O)N[C@@H](CC(N)=O)C(=O)N[C@H]2C(=O)N[C@H]3C(=O)N[C@H](C(=O)N[C@H](C(=O)O)c4cc(O)cc(O)c4-c4cc3ccc4O)[C@H](O)c3ccc(c(Cl)c3)Oc3cc2cc(c3O[C@@H]2O[C@H](CO)[C@@H](O)[C@H](O)[C@H]2O[C@H]2C[C@](C)(N)[C@H](O)[C@H](C)O2)Oc2ccc(cc2Cl)[C@H]1O [VANCOMYCIN] | 2.33 (≈ 1.61 µM) | 2.5 (≈ 1.73 µM) | 1.67 (≈ 1.15 µM) | 1.83 (≈ 1.26 µM) | 2.67 (≈ 1.84 µM) | 3 (≈ 2.07 µM) | 1.71 (≈ 1.18 µM) | – | 1.83 (≈ 1.26 µM) | 2.33 (≈ 1.61 µM) | 1.33 (≈ 0.918 µM) | 1.33 (≈ 0.918 µM) | 0.15 (≈ 0.104 µM) | 16
10 | CN(C)c1cc(NC(=O)CNC(C)(C)C)c(O)c2c1C[C@H]1C[C@H]3[C@H](N(C)C)C(O)=C(C(N)=O)C(=O)[C@@]3(O)C(O)=C1C2=O [TIGECYCLINE] | 0.16 (≈ 0.273 µM) | 0.19 (≈ 0.324 µM) | 0.23 (≈ 0.393 µM) | 0.27 (≈ 0.461 µM) | 0.92 (≈ 1.57 µM) | 0.83 (≈ 1.42 µM) | 0.1 (≈ 0.171 µM) | – | 0.2 (≈ 0.341 µM) | – | – | 0.54 (≈ 0.922 µM) | 0.07 (≈ 0.12 µM) | –
11 | CNC(C)[C@@H]1CC[C@@H](N)[C@@H](O[C@H]2[C@H](O)[C@@H](O[C@H]3OC[C@](C)(O)[C@H](NC)[C@H]3O)[C@H](N)C[C@@H]2N)O1.CN[C@@H]1[C@@H](O)[C@@H](O[C@@H]2[C@@H](O)[C@H](O[C@H]3O[C@H](C(C)N)CC[C@H]3N)[C@@H](N)C[C@H]2N)OC[C@]1(C)O.CN[C@@H]1[C@@H](O)[C@@H](O[C@@H]2[C@@H](O)[C@H](O[C@H]3O[C@H](CN)CC[C@H]3N)[C@@H](N)C[C@H]2N)OC[C@]1(C)O (some centres not stated) | 4 | 3.67 | 1.54 | 5.33 | 2.67 | > 4 | 3 | – | 6 | > 4 | 5.33 | > 4 | 6 | –
